Experimental data reported in paper PMC10675077, “Antimicrobial Properties of New Polyamines Conjugated with Oxygen-Containing Aromatic Functional Groups” (Molecules, 2023).

Tests used:
[1] = system: yeast cells; test: Intracellular ATP by luciferase bioluminescence, yeast; assay type: cell-based, Saccharomyces cerevisiae; conditions: 50-fold the MIC, overnight treatment
Experimental: The procedure described by Lehtinen et al. was followed, with the modifications indicated herein. In the case of bacteria, 1.5 OD600 units were incubated overnight in 1 mL of final volume with 5-fold MIC concentrations. Then, the cells were collected, washed 3 times in 20 mM phosphate buffer pH 7.4, and lysed in 200 μL of LS1 (50 mM of glucose, 25 mM of Tris-HCl pH 8.0, and 10 mM of EDTA pH 8.0) containing 5 mg/mL of lysozyme and the same volume of glass beads (425–600 μm), by stirring 10 times for 15 s each. Then, the solution was centrifuged at 14,800× g for 15 min, and the supernatant was used for a luciferase assay. For this purpose, in each well of a microtiter plate, 100 μL of luciferase assay buffer (0.015 M of MgSO4, 0.015 M of KH2PO4 pH 8, 0.004 M of EGTA pH 8, and 2 mM of DTT) was added together to a 50 μL of 0.3 mg/mL luciferin solution in 0.01% (w/v) Triton X-100 and 50 μL of the cell extract. Finally, 15 μL of a 67 μg/mL aqueous solution of luciferase was added. Light emission was immediately detected using a Luminoskan Ascent instrument (Thermo Scientific, Waltham, MA, USA) for 1 s per well. Glass beads, lysozyme, luciferin, and luciferase were purchased from Sigma-Aldrich.
[…] Then, cells were collected and washed as above and resuspended in 500 μL of LS2 (140 mM of NaCl, 1.5 mM of MgCl2, 10 mM of Tris-HCl pH 8.0, and 0.5% (v/v) NP40). Cells were lysed in the presence of 1 volume of glass beads as described above. The next steps were carried out as in the case of bacterial samples.
Experiments were carried out at least in triplicate in all cases, and control drugs and SDS (0.1% (w/v) of the final concentration) were also included.

[2] = system: E. coli; test: Lytic activity, time-kill (OD600), E. coli; assay type: cell-based, Escherichia coli; conditions: 5 times the MIC
Experimental: To determine if the compounds showing microbicidal activity induce cell lysis, the procedure described by Fleeman et al. was followed, with the modifications indicated below. The E. coli and S. aureus strains were grown as in the experiments described earlier. The cells corresponding to 1.5 units of OD600 were collected and resuspended in 1% BP after washing in the same medium. They were incubated in a final volume of 1 mL with concentrations 5 times higher than the MIC of the analysed compounds, and OD600 was monitored over time. Other antimicrobial compounds were also used in this study as controls. The experiments were performed in triplicate.

[3] = parameters: method as in PMID 37335019; conditions: 298 K, 0.15 mol/dm NaCl; error in last figure in parentheses; cited from earlier work
[4] = system: S. aureus; test: Checkerboard titration synergy, S. aureus; assay type: cell-based, Staphylococcus aureus; conditions: synergistic when FICI ≤0.5
Experimental: The combined antimicrobial activity of the test compounds with the antibacterial or antifungal control agents was performed under the same conditions used for the MIC determination and following the procedures described by Carton Herrán, Reis de Sá et al. and Zharkova et al.. For each experiment, 16 samples (4 rows × 4 columns) in a total volume of 0.5 mL were prepared in tubes using an array of combinations between the MIC value and 0 μg/mL of the compound to be tested in each row, and between the MIC value and 0 μg/mL of the reference drug in each column. In this way, a variety of mixtures with different concentrations of them alone or in combination was obtained. Briefly, 0.5 mL of a microorganism culture was added to each one of the samples, and after incubation for 24 h with shaking at the appropriate temperature (37 °C or 30 °C), the tubs were visually inspected, and the OD600 was measured. From this information, the fractional inhibitory concentration index (FICI) was calculated according to the formula FIC index = ([A]/[CMI A]) + ([B]/[CMI B]), where [A] and [B] are respective concentrations of tested polyamine and reference drug in their combination effectively inhibiting the growth of bacteria or yeast, and [MIC A] and [MIC B] are the individual MICs of the tested polyamine and reference drug when they are used alone. An interaction is considered synergistic when the FICI value is ≤0.5 [41, 42].
To confirm the data obtained in the checkerboard assay, 30 μL of a ten-fold dilution of the tubes containing concentrations of half of the MIC of each one of the compounds alone (polyamine to be tested and reference drug) and one fourth of the MIC of each one in combination were also spread in LB or SC-ura plates (according to the microorganism considered in each case) and incubated at 37 °C or 30 °C. The visualisation of these plates was performed after 24 or 48 h, respectively. All these experiments were carried out in triplicate.

[5] = system: human Jurkat cell line; test: Cytotoxicity, flow cytometry viability assay with propidium iodide; assay type: cell-based; conditions: 24 h treatment, average of three experiments
How it was run: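 Jurkat cells in RPMI 1640 with 5% FCS exposed to a concentration range of compound or PBS for 24 h. Dead cells scored as PI-positive events (3.75 μM PI, 5 min, room temperature) by flow cytometry, 10,000 events per sample. IC50 obtained by curve fitting; triplicates.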

| Compound | Intracellular ATP level relative to untreated cells [1] | Lytic activity (OD600 over time) [2] | Stepwise protonation constant (log K), H2L + H ⇄ H3L [3] | Stepwise protonation constant (log K), H3L + H ⇄ H4L [3] | Stepwise protonation constant (log K), L + H ⇄ HL [3] | Stepwise protonation constant (log K), LH + H ⇄ H2L [3] | Synergy with Ampicillin [4] | Synergy with Ciprofloxacin [4] | Synergy with Doxycycline [4] | Synergy with Gentamicin [4] | IC50, cytotoxicity on the human Jurkat cell line [5] [µg/mL] |
| --- | --- | --- | --- | --- | --- | --- | --- | --- | --- | --- | --- |
| c1cc2nc(c1)CNCCN(CCNCc1ccc3c(c1)OCO3)CCNC2 [Compound 5a, 2-(3,6,9-triaza-1(2,6)-pyridinacyclodecaphane-6-yl)-N-(benzo[d][1,3]dioxol-5-ylmethyl)ethan-1-amine] | 50–70% | do not have a lytic effect | – | – | – | – | – | – | – | – | – |
| Oc1ccccc1CNCCN1CCNCc2cccc(n2)CNCC1 [Compound 6a] | 50–70% | do not have a lytic effect | 7.92 (1) | 6.67 (2) | 9.93 (1) | 9.11 (1) | no synergy and - | no synergy and - | no synergy and - | no synergy and - | – |
| N^1-(benzo[d][1,3]dioxol-5-ylmethyl)-N^3-(2-((2-((3-((benzo[d][1,3]dioxol-5-ylmethyl)amino)propyl)amino)ethyl)(2-((3-(((2,3-dihydrobenzofuran-6-yl)methyl)amino)propyl)amino)ethyl)amino)ethyl)propane-1,3-diamine [Compound 4a] | – | – | – | – | – | – | – | – | – | – | 76.86 |
| Oc1ccc(CNCCN2CCNCc3cccc(n3)CNCC2)cc1 [Compound 7a] | – | – | 8.516 (8) | 7.341 (9) | 10.153 (9) | 9.473 (9) | – | – | – | – | – |
